Where two headings read alike, the source gives them in different places.

The target in one test is T1, His6-TEV-PPARγ-(234-505) (Homo sapiens, UniProt P37231).
T1 construct: The His6-TEV-PPARγ-(234-505) protein for assay was expressed and purified; TEV cleavage site (N); made in house
T1 sequence (P37231 234-505): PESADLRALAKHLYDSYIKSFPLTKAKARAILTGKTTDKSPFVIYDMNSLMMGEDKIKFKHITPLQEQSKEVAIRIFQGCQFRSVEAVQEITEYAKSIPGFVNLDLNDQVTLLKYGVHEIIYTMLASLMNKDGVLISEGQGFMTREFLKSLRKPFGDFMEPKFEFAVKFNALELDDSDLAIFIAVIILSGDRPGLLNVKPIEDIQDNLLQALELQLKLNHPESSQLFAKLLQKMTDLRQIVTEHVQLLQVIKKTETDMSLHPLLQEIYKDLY
The test can be described thus: TR-FRET Assay to Measure Co-R Peptide Recruitment to PPARγ. The note with it: Co-R peptide (SMRT-ID2) recruitment; top final concentration 20 μM; read-out: TR-FRET i-Ag; AC50. The class given is biochemical. In a few lines:
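His-tagged PPARγ (or controls) was preincubated with compound for 20 minutes at room temperature, then 5 nM anti-His terbium antibody and 200 nM FITC-labeled SMRT-ID2 corepressor peptide (final) were added for a further hour. TR-FRET signal was normalized to percent response using 500 nM T0070907 and DMSO controls.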
In general terms: In TR-FRET formats the signal depends on donor and acceptor labels being close together.

In a further test the test system is UM-UC-9 engineered cells. Briefly: Cell proliferation / short-term viability assay, CellTiter-Glo 144 h. The test is classed as cell-based, human. Particulars: read-out: CTGlo 144 h UMUC9.5, G150. An outline of the steps: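 UM-UC-9 engineered assay-ready cells seeded at 500 cells/well in high-glucose DMEM/10% FBS, treated from dose-response plates, grown at 37° C, 5% CO2. CellTiter-Glo 2.0 luminescence read on day 7, with a day-0 pretreatment plate as T0 reference and DMSO wells as negative control.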
For orientation: ATP-based viability assays read luminescence as a measure of living cells.

Turning to `COc1cc(-c2cc(C(=O)N3CCC(C(=O)NC4CCC(O)(C(F)(F)F)CC4)CC3(C)C)n[nH]2)c(F)cn1` (single isomer, unassigned) [Example 407-B], the AC50 on His6-TEV-PPARγ-(234-505) amounted to 1690 nM. For the same compound, in the test with UM-UC-9 engineered cells, the IC50 was found to be 1340 nM.
`COc1cc(-c2cc(C(=O)N3CCC(C(=O)N[C@H]4CCOc5ccc(C#N)cc54)CC3)n[nH]2)c(Cl)cn1` [Example 233, (S)-1-(5-(5-chloro-2-methoxypyridin-4-yl)-1H-pyrazole-3-carbonyl)-N-(6-cyanochroman-4-yl)piperidine-4-carboxamide]: the AC50 at His6-TEV-PPARγ-(234-505) was 196 nM. In the test on UM-UC-9 engineered cells (Homo sapiens, UM-UC-9, 144 h), the IC50 was 3430 nM.
For “(1R,3s,5S)—N-(3-chlorobenzyl)-8-(5-(5-fluoro-2-methoxypyridin-4-yl)-1H-pyrazole-3-carbonyl)-8-azabicyclo[3.2.1]octane-3-carboxamide and (1R,3r,5S)—N-(3-chlorobenzyl)-8-(5-(5-fluoro-2-methoxypyridin-4-yl)-1H-pyrazole-3-carbonyl)-8-azabicyclo[3.2.1]octane-3-carboxamide [Example 160]”, the AC50 at His6-TEV-PPARγ-(234-505) was found to be 11.6 nM. Besides, the IC50 with UM-UC-9 engineered cells worked out at 20.6 nM.
For the compound `COc1cc(-c2cc(C(=O)N3CC[C@H](C(=O)NCc4ncc(C#N)cc4Cl)CC34CC4)n[nH]2)c(F)cn1` [Example 391, (S)—N-((3-chloro-5-cyanopyridin-2-yl)methyl)-4-(5-(5-fluoro-2-methoxypyridin-4-yl)-1H-pyrazole-3-carbonyl)-4-azaspiro[2.5]octane-7-carboxamide], the AC50 at His6-TEV-PPARγ-(234-505) came out at 19.5 nM. For the same compound, the IC50 in the test with UM-UC-9 engineered cells (Homo sapiens, UM-UC-9, 144 h) was found to be 81.3 nM.
As to `COc1cc(-c2cc(C(=O)N3CC[C@H](C(=O)NC4CCN(c5ccnc6[nH]ncc56)C4)CC34CC4)n[nH]2)c(F)cn1` (single isomer, unassigned) [Example 450-A], the AC50 on His6-TEV-PPARγ-(234-505) amounted to 3.3 nM. Further, in the test with UM-UC-9 engineered cells, the IC50 worked out at 162 nM.
Consider `COc1cc(-c2cc(C(=O)N3CCC(C(=O)NCc4cc(C)n(C)n4)CC3)n[nH]2)c(Cl)cn1` [Example 141, 1-(5-(5-chloro-2-methoxypyridin-4-yl)-1H-pyrazole-3-carbonyl)-N-((1,5-dimethyl-1H-pyrazol-3-yl)methyl)piperidine-4-carboxamide], for which, at His6-TEV-PPARγ-(234-505), the AC50 is 679 nM. Also, the IC50 in the test with UM-UC-9 engineered cells (Homo sapiens, UM-UC-9, 144 h) turned out to be 2600 nM.
For `COc1cc(-c2cc(C(=O)N3CC[C@H](C(=O)NCc4nnc(C)cc4C)CC34CC4)n[nH]2)c(F)cn1` [Example 412, (S)—N-((4,6-dimethylpyridazin-3-yl)methyl)-4-(5-(5-fluoro-2-methoxypyridin-4-yl)-1H-pyrazole-3-carbonyl)-4-azaspiro[2.5]octane-7-carboxamide], at His6-TEV-PPARγ-(234-505), the AC50 turned out to be 79.2 nM. The IC50 in the test on UM-UC-9 engineered cells (Homo sapiens, UM-UC-9, 144 h) turned out to be 198 nM.
In the same order, the values of `COc1cc(-c2cc(C(=O)N3CCC(C(=O)NCc4cccc(Cl)c4)CC3)n[nH]2)c(Cl)cn1` [Example 112, 1-[5-(5-chloro-2-methoxypyridin-4-yl)-1H-pyrazole-3-carbonyl]-N-[(3-chlorophenyl)methyl]piperidine-4-carboxamide] are 30.3 nM and 111 nM.
In the same order, the values of `COc1cc(-c2cc(C(=O)N3CCC(C(=O)N[C@H](C)c4cccc(F)c4)CC3)n[nH]2)c(Cl)cn1` [Example 153, (R)-1-(5-(5-chloro-2-methoxypyridin-4-yl)-1H-pyrazole-3-carbonyl)-N-(1-(3-fluorophenyl)ethyl)piperidine-4-carboxamide] are 621 nM and 2090 nM.
`COc1cc(-c2cc(C(=O)N3CCC(C(=O)NCc4ccc5[nH]c(C)nc5c4)CC3)n[nH]2)c(Cl)cn1` [Example 215, 1-(5-(5-chloro-2-methoxypyridin-4-yl)-1H-pyrazole-3-carbonyl)-N-((2-methyl-1H-benzo[d]imidazol-5-yl)methyl)piperidine-4-carboxamide]: on His6-TEV-PPARγ-(234-505), the AC50 was found to be 265 nM. Moreover, the IC50 in the test on UM-UC-9 engineered cells (Homo sapiens, UM-UC-9, 144 h) was over 5000 nM.
On to `COc1cc(-c2cc(C(=O)N3CCC(C(=O)NC4CCN(c5ccccc5)C4)CC3)n[nH]2)c(Cl)cn1` (stereo not shown) [Example 117, 1-[5-(5-chloro-2-methoxypyridin-4-yl)-1H-pyrazole-3-carbonyl]-N-(1-phenylpyrrolidin-3-yl)piperidine-4-carboxamide], for which, on His6-TEV-PPARγ-(234-505), the AC50 came out at 56.2 nM. The IC50 in the test with UM-UC-9 engineered cells (Homo sapiens, UM-UC-9, 144 h) is 293 nM.
In the case of `COc1cc(-c2cc(C(=O)N3[C@@H]4CC[C@H]3C[C@H](C(=O)NCc3ccc5[nH]nc(F)c5c3)C4)n[nH]2)c(F)cn1` [Example 258, (1R,3S,5S)—N-[(3-fluoro-1H-indazol-5-yl)methyl]-8-[5-(5-fluoro-2-methoxypyridin-4-yl)-1H-pyrazole-3-carbonyl]-8-azabicyclo[3.2.1]octane-3-carboxamide], the AC50 on His6-TEV-PPARγ-(234-505) came to 17 nM. Moreover, the IC50 with UM-UC-9 engineered cells (Homo sapiens, UM-UC-9, 144 h) amounted to 20 nM.
Regarding `COc1cc(-c2cc(C(=O)N3CC[C@H](C(=O)NCc4ncc(C(F)(F)F)cn4)CC34CC4)n[nH]2)c(F)cn1` [Example 457, (S)-4-(5-(5-fluoro-2-methoxypyridin-4-yl)-1H-pyrazole-3-carbonyl)-N-((5-(trifluoromethyl)pyrimidin-2-yl)methyl)-4-azaspiro[2.5]octane-7-carboxamide], the AC50 at His6-TEV-PPARγ-(234-505) came out at 13.4 nM. The IC50 in the test with UM-UC-9 engineered cells (Homo sapiens, UM-UC-9, 144 h) is 414 nM.
Turning to `CC(O)c1cc(-c2cc(C(=O)N3CCC(C(=O)NCc4ncc(F)cc4Cl)CC34CC4)n[nH]2)c(F)cn1` (mixture of isomers) [Example 478], the AC50 at His6-TEV-PPARγ-(234-505) came out at 38.8 nM. Moreover, in the test on UM-UC-9 engineered cells, the IC50 was determined as 415 nM.
For the compound `CCOC1(C(F)(F)F)CCC(NC(=O)[C@@H]2C[C@H]3CC[C@@H](C2)N3C(=O)c2cc(-c3cc(OC)ncc3F)[nH]n2)CC1` (single isomer, unassigned) [Example 303-B], the AC50 at His6-TEV-PPARγ-(234-505) amounted to 29.8 nM. Moreover, the IC50 with UM-UC-9 engineered cells (Homo sapiens, UM-UC-9, 144 h) amounted to 82 nM.
As to `COc1cc(-c2cc(C(=O)N3CC[C@H](C(=O)NC4CN(C5CCOC5)C4)CC34CC4)n[nH]2)c(F)cn1` (single isomer, unassigned) [Example 433-A], on His6-TEV-PPARγ-(234-505), the AC50 is 126 nM. Moreover, the IC50 in the test with UM-UC-9 engineered cells turned out to be 347 nM.
On to `CC[C@H]1CC[C@@H](NC(=O)C2CCN(C(=O)c3cc(-c4ccnc(OC)c4)[nH]n3)CC2)CC1` (single isomer, unassigned) [Example 108-A, N-((1s,4s)-4-ethylcyclohexyl)-1-(5-(2-methoxypyridin-4-yl)-1H-pyrazole-3-carbonyl)piperidine-4-carboxamide], for which the AC50 at His6-TEV-PPARγ-(234-505) worked out at 160 nM. In addition, the IC50 in the test on UM-UC-9 engineered cells (Homo sapiens, UM-UC-9, 144 h) worked out at 674 nM.
Turning to `COc1cc(-c2cc(C(=O)N3CCC(C(=O)NCC4CCc5[nH]ncc5C4)CC34CC4)n[nH]2)c(F)cn1` (single isomer, unassigned) [Example 341-A], the AC50 at His6-TEV-PPARγ-(234-505) was found to be 6.1 nM. In the test with UM-UC-9 engineered cells, the IC50 came out at 6.6 nM.
Take `COc1cc(-c2cc(C(=O)N3CCC(C(=O)NC4CCC5(CCO5)CC4)CC3)n[nH]2)c(F)cn1` (stereo not shown) [Example 276, 1-(5-(5-fluoro-2-methoxypyridin-4-yl)-1H-pyrazole-3-carbonyl)-N-(1-oxaspiro[3.5]nonan-7-yl)piperidine-4-carboxamide]: the AC50 on His6-TEV-PPARγ-(234-505) worked out at 813 nM. Moreover, the IC50 in the test on UM-UC-9 engineered cells (Homo sapiens, UM-UC-9, 144 h) was over 4000 nM.
Turning to `COc1cc(-c2cc(C(=O)N3CCC(C(=O)NCc4cnc(C)o4)CC3)n[nH]2)c(Cl)cn1` [Example 136, 1-(5-(5-chloro-2-methoxypyridin-4-yl)-1H-pyrazole-3-carbonyl)-N-((2-methyloxazol-5-yl)methyl)piperidine-4-carboxamide], at His6-TEV-PPARγ-(234-505), the AC50 worked out at 887 nM. For the same compound, the IC50 with UM-UC-9 engineered cells (Homo sapiens, UM-UC-9, 144 h) was 6100 nM.

The values above are taken from patent publication US12606541B2, “PPARg modulators and methods of use” (Eisai R&D Management Co., Ltd., priority 2020, dated 2026).
